Measurements taken from patent US20250177367A1, “COMBINATION THERAPIES FOR MODULATION OF LIPID PRODUCTION” (Ohio State Innovation Foundation, priority 2022, published 2025).
Entries after “also recorded” stand apart in the source; their conditions may differ.

Key:
[1] = test system: SREBP-1/2 cleavage; assay: Western blot of SREBP cleavage and FASN/SCD1 expression in GBM cells; type: cell-based, human; details: for pimozide-stimulated SREBP-1 activation, FASN/SCD1 and ASCT2 expression: with pimozide 5 μM, 24 hr, GBM30, U373 or U251
Protocol: P, precursor of SREBP; N, N-terminus of SREBP-1. C, C-terminus of SREBP-2.
4 mM glutamine and […] pyruvate.
(§1) Western Blot. Cells were lysed with RIPA buffer containing a protease inhibitor cocktail and phosphatase inhibitors. The proteins were separated on 12% SDS-PAGE, and transferred onto an ECL nitrocellulose membrane (#1620112, Bio-Rad). After blocking for 1.5 hr in 5% non-fat dried milk diluted by Tris-buffered saline containing 0.1% Tween 20, the membranes were incubated with various primary antibodies, followed by appropriate secondary antibodies conjugated to horseradish peroxidase.

[2] = test system: H1299 cells-derived xenograft; assay: H1299-derived xenograft mouse model treated with CB-839; type: in vivo, mice; details: CB-839 30 mg/kg, i.p., twice per day for 3 days
Protocol: The treatment started when the tumor size reached 200 mm^3. […] Scale bars, 50 m. The expression levels were quantified by using ImageJ to analyze 4 images per tumor and 3 tumors in each group.
(§2) Measures of Ammonia Levels in Tissues, Cells and bound to SCAP. To measure ammonia levels in tumors and normal tissues, 10 mg of tissues were collected and lysed through homogenization on ice in the ammonia assay buffer (100 l) from the commercial kit. The lysates were centrifuged at 20,000×g for 5 min at 4° C. and the ammonia levels in the supernatants were measured by the ammonia assay kit following the manufacturer's instructions (#ab83360, Abcam). For measurement of SCAP-bound ammonia, a total of 1.3×10^7 HEK293T cells was seeded in 15 cm dishes for 24 hr. The cells were transfected with GFP, GFP-SCAP wild-type, or D428A mutant together with myc-Insig1 plasmids for 24 hr, and then washed with PBS, followed by addition of fresh DMEM medium containing glucose (5 mM) and NH4Cl (4 mM) for 2 hr in the absence of glutamine. […]

[3] = test system: H1299 and U87 cells; assay: Ammonia, glutamate and α-KG levels after GPNA or CB-839; type: cell-based; details: for levels of glutamate, ammonia, and α-KG in cells and in cell culture media: GPNA 5 mM or CB-839 100 nM, 12 hr; for glutamine consumption: H1299 and U87 cells
Protocol: The results are presented as mean±SEM (n=3). H1299 or U87 cells were cultured in RMPI 1640 or DMEM medium supplemented with 5% FBS for 24 hr. Cells then were washed with PBS once and treated with/without GPNA (5 mM) or CB-839 (100 nM) in the presence of glutamine (4 mM) and glucose (5 mM) under the fresh serum-free RMPI 1640 or DMEM medium for 12 hr before analysis. Cell culture conditions prior to treatment are the same for the subsequent panels unless otherwise stated.
Analysis of Metabolites in Cell Culture Medium. Metabolite levels in culture medium, including glucose, glutamine, lactate, glutamate, and NH4+, were measured using the Nova Bioprofile 100 Plus Bioanalyzer (Nova Biomedical). H1299 (4×105) or U87 (3×105) cells were seeded in 60 mm dish for 24 hr. After the cells were washed with PBS, they were switched to 2.5 ml serum-free medium with glucose (5 mM) and glutamine (4 mM) for 12 hr. The culture or control media (without cultured cells) were centrifuged at 12,000 rpm for 1 min and run on the bioanalyzer. Cell numbers were determined by using a hemocytometer after trypan blue staining. Consumption of glucose and glutamine or production of lactate, glutamate, and NH4+ under each experimental condition was calculated by subtracting their levels in control medium and normalizing to cell numbers.
as §2

[4] = test system: SREBP activation; assay: Western blot of GBM30 cells treated with CB-839 with glutamine, glutamate or NH4Cl; type: cell-based, human; details: 12 hr
Protocol: as §1

[5] = test system: U251 cells; assay: Confocal imaging of mitochondria and ROS (MitoTracker / CellROX Deep Red); type: cell-based; details: GSH 3 mM
Protocol: ROS levels were quantified in more than 100 cells (mean±SEM). Sp<0.0001. Scale bar, 10 μm.
DON (10 μM) or CB-839 (I00 nM) in combination as in (A) in the presence or absence of PA (palmitate, 20 μM) and OA (oleic acid, 20 μM) and cholesterol (3 μg/ml) for 24 hr.

[6] = test system: U251 cells; assay: Micrographs of U251 cell growth; type: cell-based; details: GSH 3 mM, 48 hr
Protocol: DON (10 μM) or CB-839 (100 nM) alone or in combination as in (A) in the presence or absence of GSH (3 mM) for 48 hr.
Micrographs show the growth of U251 cells treated with/without pimozide (2, 3 μM), perphenazine (3, 5 μM), GPNA (1 mM), or CB-839 (100 nM). Cells were cultured in 5% FBS full medium for 24 hr. Cells were then washed with PBS twice and treated in 1% FBS with the presence of 5 mM Glucose, 4 mM Glutamine and 1 mM Pyruvate in fresh serum-free medium for 48 hr. Scale bar, 100 μm.

[7] = test system: SREBP-1 and -2 cleavage; assay: SREBP activation by metabolites in H1299 or U87 cells (western blot, IF); type: cell-based; details: for SREBP-1 translocation into the nucleus: in the presence of glucose, without glutamine, 12 hr
Protocol: FIG. 1C show the western blot analysis of whole lysates from H1299 or U87 cells after NH4Cl stimulation at the indicated doses for 12 hr. in the presence of glucose (5 mM) under serum-free culture conditions.
Nuclei were stained with DAPI (blue). Scale bars, 10 m. The nuclear intensity of SREBP-1 was quantified over 30 cells by ImageJ (mean±SEM) and shown below. Significance was determined by unpaired Student's t test. *p<0.05, ^sp<0.001, #p<0.0001; N.S. not significant.
as §1, with “The proteins were separated on 12% SDS-PAGE, and transferred onto an ECL nitrocellulose membrane (#1620112, Bio-Rad).” left out
Immunofluorescence. Cells grown on coverslips were washed with PBS twice and fixed with 4% formaldehyde for 15 min, then permeabilized with 0.1% Triton X-100/PBS for 5 min and blocked by 3% bovine serum albumin for 30 min at room temperature. […] Cells were washed three times with PBS in a dark chamber.

[8] = test system: ASCT2; assay: ASCT2 expression (western blot of membrane extracts, immunofluorescence); type: cell-based, human; details: pimozide 5 μM with cholesterol 3 μg/ml, 24 hr
Source text: Transferring receptor-1(CD71), an integral membrane protein that mediates the uptake of transferrin-iron complexes, was used as a membrane loading control for ASCT2. […] Nuclei were stained with DAPI (blue).

[9] = test system: normal human astrocytes (NHA); assay: Effect of PMZ on normal human astrocytes; type: cell-based; details: doses up to 10 μM, 6 days
Protocol: Statistical significance was analyzed by one-way ANOVA.

[10] = test system: GBM30-derived xenograft; details: mouse, in vivo
Protocol: (§3) Mice were implanted with 3×10^6 GBM30 cells in flank. When tumor volume reached to 80 mm^3, pimozide (15, 30, 60 mg/kg/day) or vehicles were administered to mice via intraperitoneal injection for 14 days.
(§4) GBM30 cells were implanted in mice to form tumor same as FIG. 12A. Mice were started treatment when tumor volume reached to ˜80 mm^3 by pimozide (15 mg/kg/day) and fatostatin (25 mg/kg/day) alone or combination for 16 days. The tumors were isolated from mice at day 14 post-treatment and imaged. Data are shown as mean±SD (n=6).
(§5) Data are shown as mean±SD(n=6). Significance was determined by one-way ANOVA with Dunnett's multiple comparisons adjustment. *p<0.002. Tumor diameter was measured using vernier caliper and calculated as V=L×S×S/2 (S refers to short diameter, L means long diameter, V is tumor volume).
(§6) Mice were implanted with 3×10^6 GBM30 cells in flank. When tumor volume reached to ˜80 mm^3, pimozide (15 mg/kg/day), GPNA (50 mg/kg/day), DON (0.2 mg/kg/day), or CB-839 (25 mg/kg/day) alone or in combination were administered to mice via intraperitoneal injection for 14 days.
(§7) Data are shown as mean±SEM (n=6). Significance was determined by one-way ANOVA with Dunnett's multiple comparisons adjustment. *p<0.002.

[11] = test system: GBM30-derived xenograft; assay: GBM30-derived flank xenograft model; details: 60 mg/kg dose
Protocol: as §3, §4, §5, §6, §7

O=C(Cc1cccc(OC(F)(F)F)c1)Nc1ccc(CCCCc2nnc(NC(=O)Cc3ccccn3)s2)nn1 [CB-839, telaglenastat]
pimozide-stimulated SREBP-1 activation, FASN/SCD1 and ASCT2 expression [1]: completely abolished
ammonia levels in tumor tissues [2]: reduction
SREBP-1 levels in tumors (IHC) ([2]; vs vehicle): significantly reduced
levels of glutamate, ammonia, and α-KG in cells and in cell culture media [3]: dramatically reduced
glutamine consumption [3]: significant reduction
SREBP activation ([4]; CB-839 200 nM): SREBP activation inhibited by CB-839

Cl.N[C@@H](CCC(=O)Nc1ccc([N+](=O)[O-])cc1)C(=O)O [GPNA, gamma-L-Glutamyl-p-nitroanilide Hydrochloride]
pimozide-stimulated SREBP-1 activation, FASN/SCD1 and ASCT2 expression [1]: completely abolished
levels of glutamate, ammonia, and α-KG in cells and in cell culture media [3]: dramatically reduced
glutamine consumption [3]: significant reduction

N[C@@H](CCC(=O)N[C@@H](CS)C(=O)NCC(=O)O)C(=O)O [GSH]
combination treatment-elevated ROS level in mitochondria [5]: reduced the combination treatment-elevated ROS level in mitochondria
combination-induced cell death [6]: dramatically rescued the combination-induced cell death

N [ammonia]
restoration of pimozide-stimulated SREBP-1 activation, FASN/SCD1 and ASCT2 expression ([1]; NH3·H2O 4 mM, after glutamine absence, GPNA or CB-839): fully restored
SREBP-1 and -2 cleavage, FASN and SCD1 expression ([7]; in the presence of glucose 5 mM, NH4Cl, serum-free): induced SREBP-1 and -2 cleavage; also recorded: dose- and time-dependent
SREBP-1 translocation into the nucleus [7]: markedly stimulated SREBP-1 translocation into the nucleus
restoration of SREBP activation and FASN/SCD1 expression inhibited by CB-839 ([4]; 4 mM): strongly restore SREBP activation

CC(C)CCC[C@@H](C)[C@H]1CC[C@H]2[C@@H]3CC=C4C[C@@H](O)CC[C@]4(C)[C@H]3CC[C@]12C [cholesterol]
pimozide treatment-elevated ASCT2 expression [8]: suppressed

N[C@@H](CCC(=O)O)C(=O)[O-].O.[Na+] [glutamate, L-Glutamic acid monosodium salt monohydrate]
SREBP-1 translocation into the nucleus [7]: failed to do so

C[C@H](O)C(=O)[O-].[Na+] [lactate, sodium L-lactate]
SREBP-1 translocation into the nucleus [7]: failed to do so

O=c1[nH]c2ccccc2n1C1CCN(CCCC(c2ccc(F)cc2)c2ccc(F)cc2)CC1 [pimozide]
toxic effects on normal human astrocytes [9]: no toxic effects
toxicity in mice [10]: toxic
time of treatment until mice died [11]: 6 to 8 days

O=C([O-])CCC(=O)C(=O)[O-].[Na+].[Na+] [α-KG, α-Ketoglutaric acid sodium salt]
SREBP-1 translocation into the nucleus [7]: failed to do so
